How the values were obtained:
Test in all cases: Cysteine reactivity ABPP
Assay type in all cases: binding
[1] = target: T1, STAT3 Signal transducer and activator of transcription 3 C712, C718 (P40763) (Homo sapiens, UniProt P40763)
T1 construct: endogenous in cells; host or cells: primary human T cells
Description: (§1) Activated or expanded primary human T cells were re-suspended in RPMI (1×10^6 cells/mL) containing 10% fetal bovine serum (FBS), penicillin (100 U/mL), streptomycin ([…]), and L-glutamine (2 mM). The cells were treated with DMSO or compounds for 3 h, pelleted (524 g, 5 min), washed with PBS, and lysed by sonication (2×8 pulses). Soluble and particulate proteomic fractions were separated by ultracentrifugation (100,000 g, 45 min), and protein concentration was normalized to 1.7 mg/mL using a standard DC protein assay (Bio-Rad). The resulting proteomes were analyzed by competitive isotopic Tandem Orthogonal Proteolysis Activity-Based Protein Profiling (isoTOP-ABPP).
(§2) The heavy/light isoTOP-ABPP ratios (R values) for each unique peptide (DMSO/compound treated) were quantified with in-house CIMAGE software (Weerapana et al., 2010) using default parameters (3 MS1 acquisitions per peak and signal to noise threshold set to 2.5). Site-specific engagement of cysteine residues was assessed by blockade of IA-alkyne probe labeling. […] Ratios for unique peptide sequences were calculated for each experiment; overlapping peptides with the same modified cysteine (e.g., different charge states, elution times or tryptic termini) were grouped together and the median ratio was reported as the final ratio (R). Additionally, ratios for peptide sequences containing multiple cysteines were grouped together. When aggregating data across experimental replicates, the mean of each experimental median R was reported. The peptide ratios reported by CIMAGE were further filtered to ensure the removal or correction of low-quality ratios in each individual dataset. The quality filters applied were the following: removal of half-tryptic peptides, removal of peptides with more than one tryptic miscleaved, removal of peptides with R=20 and only a single MS2 event triggered during the elution of the parent ion, removal of non-unique peptides. Further filtering was then performed as described below for each experiment type.
(§3) Samples (500 μL, 1.7 mg/mL) were treated with iodoacetamide desthiobiotin (IA-DTB, 5 μL of 10 mM stock in DMSO, final concentration: 100 μM) for 1 h at ambient temperature. Ice-cold MeOH (500 μL) and CHCl3 (200 μL) were then added, the mixture was vortexed and centrifuged (10,000 g, 10 min, 4° C.) to afford a protein disc at the interface of CHCl3 and aqueous layers. Both layers were aspirated without perturbing the disk, which was re-suspended in cold methanol (500 μL) and CHCl3 (200 μL) by sonication. The proteins were pelleted (10,000 g, 10 min, 4° C.), and the resulting pellets were re-suspended in a buffer (90 μL) containing 9M urea, 10 mM DTT and 50 mM triethylammonium bicarbonate ( 1/20 dilution of 1.0 M stock solution, pH 8.5) by thorough pipetting up and down. The resulting mixture was heated at 65° C. for 20 min. Sample was cooled to room temp, iodoacetamide (10 μL, 500 mM solution in H2O) was added, and the samples were incubated at 37° C. for 30 min with shaking.
(§4) At individual TMT experiment level, the following filters were applied to remove low-quality peptides: removal of non-unique peptides; removal of half-tryptic peptides; removal of peptides with more than one internal miscleaved site; removal of peptides with low (<10,000) sum of reporter ion intensities for control channels, and peptides with high variation between the replicate control channels (coefficient of variance >0.5). R values (compound-treated vs. DMSO-treated) for each peptide entry were calculated using the reporter ion intensities of DMSO and compound treated TMT channels for each treatment group with a maximum ratio cap of 20. […]

[2] = target: T2, TRANK1 TPR and ankyrin repeat-containing protein 1 C1319 (O15050) (Homo sapiens, UniProt O15050)
T2 construct: Soluble and particulate proteomic fractions were separated by ultracentrifugation; endogenous in cells; host or cells: primary human T cells
Description: as §1, §2, §3, §4

[3] = target: T3, TYK2 Non-receptor tyrosine-protein kinase TYK2 C838 (P29597) (Homo sapiens, UniProt P29597)
T3 construct: endogenous in cells; host or cells: primary human T cells
T3 sequence (P29597 whole entry): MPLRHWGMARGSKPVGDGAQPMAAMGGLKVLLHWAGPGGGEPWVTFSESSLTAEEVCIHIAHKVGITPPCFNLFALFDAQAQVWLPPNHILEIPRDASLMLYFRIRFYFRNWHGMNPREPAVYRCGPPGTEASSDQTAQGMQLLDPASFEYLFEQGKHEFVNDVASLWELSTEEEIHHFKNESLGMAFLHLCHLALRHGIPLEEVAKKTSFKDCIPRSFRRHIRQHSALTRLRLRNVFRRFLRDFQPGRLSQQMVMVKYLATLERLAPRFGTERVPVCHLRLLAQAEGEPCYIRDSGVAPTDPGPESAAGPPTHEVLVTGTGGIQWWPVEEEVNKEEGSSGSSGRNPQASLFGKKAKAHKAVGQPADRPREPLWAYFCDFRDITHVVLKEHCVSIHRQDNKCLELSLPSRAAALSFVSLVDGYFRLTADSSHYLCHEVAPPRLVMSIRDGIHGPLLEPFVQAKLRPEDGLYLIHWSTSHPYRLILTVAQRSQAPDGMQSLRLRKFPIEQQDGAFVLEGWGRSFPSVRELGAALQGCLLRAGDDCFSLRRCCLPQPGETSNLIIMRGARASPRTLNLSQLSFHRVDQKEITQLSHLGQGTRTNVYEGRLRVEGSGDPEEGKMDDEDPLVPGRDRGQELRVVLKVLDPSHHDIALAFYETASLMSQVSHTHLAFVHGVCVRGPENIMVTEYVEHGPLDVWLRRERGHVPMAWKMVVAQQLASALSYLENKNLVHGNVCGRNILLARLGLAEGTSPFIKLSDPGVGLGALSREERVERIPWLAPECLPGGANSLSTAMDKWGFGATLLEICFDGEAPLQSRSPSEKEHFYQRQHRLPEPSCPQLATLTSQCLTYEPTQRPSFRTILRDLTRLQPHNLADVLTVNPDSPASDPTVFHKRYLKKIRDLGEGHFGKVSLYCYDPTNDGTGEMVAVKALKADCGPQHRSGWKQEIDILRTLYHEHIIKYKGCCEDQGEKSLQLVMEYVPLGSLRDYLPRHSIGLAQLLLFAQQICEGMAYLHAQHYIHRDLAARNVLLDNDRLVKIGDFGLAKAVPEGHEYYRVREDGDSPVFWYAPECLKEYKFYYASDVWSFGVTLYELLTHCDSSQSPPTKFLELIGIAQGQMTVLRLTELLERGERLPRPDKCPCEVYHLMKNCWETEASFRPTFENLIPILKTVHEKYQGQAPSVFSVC
Description: as §1, §2, §3, §4

[4] = target: T4, CBLB E3 ubiquitin-protein ligase CBL-B C686 (Q13191) (Homo sapiens, UniProt Q13191)
T4 construct: endogenous in cells; host or cells: primary human T cells
T4 sequence (Q13191 whole entry): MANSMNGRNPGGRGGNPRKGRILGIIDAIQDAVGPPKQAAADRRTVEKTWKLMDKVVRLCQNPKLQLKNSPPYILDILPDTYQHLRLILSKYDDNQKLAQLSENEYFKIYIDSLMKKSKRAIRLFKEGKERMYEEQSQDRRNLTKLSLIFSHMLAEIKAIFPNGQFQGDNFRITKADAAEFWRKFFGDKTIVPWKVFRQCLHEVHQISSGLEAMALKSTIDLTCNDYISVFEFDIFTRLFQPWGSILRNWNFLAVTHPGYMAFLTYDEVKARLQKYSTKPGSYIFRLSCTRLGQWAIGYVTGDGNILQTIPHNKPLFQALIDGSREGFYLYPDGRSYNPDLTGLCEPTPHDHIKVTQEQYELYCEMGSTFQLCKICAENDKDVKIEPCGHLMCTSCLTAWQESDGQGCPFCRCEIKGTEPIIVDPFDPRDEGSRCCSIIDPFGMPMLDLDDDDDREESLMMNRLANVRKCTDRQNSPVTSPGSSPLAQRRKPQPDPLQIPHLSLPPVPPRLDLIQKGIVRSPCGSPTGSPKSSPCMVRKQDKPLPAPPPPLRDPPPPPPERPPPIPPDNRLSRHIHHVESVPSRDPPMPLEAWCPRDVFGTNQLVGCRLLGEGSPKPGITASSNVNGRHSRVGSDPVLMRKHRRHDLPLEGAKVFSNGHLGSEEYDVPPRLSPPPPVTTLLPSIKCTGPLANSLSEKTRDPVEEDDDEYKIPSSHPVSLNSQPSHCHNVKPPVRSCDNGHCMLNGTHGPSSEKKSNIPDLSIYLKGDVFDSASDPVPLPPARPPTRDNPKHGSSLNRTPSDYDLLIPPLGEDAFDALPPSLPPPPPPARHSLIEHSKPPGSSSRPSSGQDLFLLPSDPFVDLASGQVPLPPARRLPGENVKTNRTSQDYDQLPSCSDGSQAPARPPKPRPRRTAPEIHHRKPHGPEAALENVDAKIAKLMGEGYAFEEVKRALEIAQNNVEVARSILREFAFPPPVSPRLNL
Description: as §1, §2, §3, §4

[5] = target: T5, PFKFB3 6-phosphofructo-2-kinase/fructose-2,6-bisphosphatase 3 C440 (Q16875) (Homo sapiens, UniProt Q16875); conditions: 100
T5 construct: endogenous in cells; host or cells: primary human T cells
T5 sequence (Q16875 whole entry, one chain of several): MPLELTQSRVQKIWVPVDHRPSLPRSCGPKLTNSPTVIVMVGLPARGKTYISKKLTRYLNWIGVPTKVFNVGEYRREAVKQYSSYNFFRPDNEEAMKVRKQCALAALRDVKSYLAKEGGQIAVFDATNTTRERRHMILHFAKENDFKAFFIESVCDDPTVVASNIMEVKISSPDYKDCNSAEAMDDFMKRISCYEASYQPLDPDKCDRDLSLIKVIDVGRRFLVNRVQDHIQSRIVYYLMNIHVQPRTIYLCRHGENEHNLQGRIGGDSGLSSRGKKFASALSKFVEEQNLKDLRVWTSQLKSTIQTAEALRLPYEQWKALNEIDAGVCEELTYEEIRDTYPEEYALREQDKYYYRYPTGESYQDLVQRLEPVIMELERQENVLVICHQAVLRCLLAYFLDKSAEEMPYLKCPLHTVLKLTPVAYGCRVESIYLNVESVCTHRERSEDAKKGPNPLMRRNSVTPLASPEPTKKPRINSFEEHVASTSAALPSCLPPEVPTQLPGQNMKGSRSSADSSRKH
Description: as §1, §2, §3, §4

[6] = target: T6, ATP2A2 Sarcoplasmic/endoplasmic reticulum calcium ATPase 2 C997 (P16615) (Homo sapiens, UniProt P16615)
T6 construct: endogenous in cells; host or cells: primary human T cells
T6 sequence (P16615 whole entry, one chain of several): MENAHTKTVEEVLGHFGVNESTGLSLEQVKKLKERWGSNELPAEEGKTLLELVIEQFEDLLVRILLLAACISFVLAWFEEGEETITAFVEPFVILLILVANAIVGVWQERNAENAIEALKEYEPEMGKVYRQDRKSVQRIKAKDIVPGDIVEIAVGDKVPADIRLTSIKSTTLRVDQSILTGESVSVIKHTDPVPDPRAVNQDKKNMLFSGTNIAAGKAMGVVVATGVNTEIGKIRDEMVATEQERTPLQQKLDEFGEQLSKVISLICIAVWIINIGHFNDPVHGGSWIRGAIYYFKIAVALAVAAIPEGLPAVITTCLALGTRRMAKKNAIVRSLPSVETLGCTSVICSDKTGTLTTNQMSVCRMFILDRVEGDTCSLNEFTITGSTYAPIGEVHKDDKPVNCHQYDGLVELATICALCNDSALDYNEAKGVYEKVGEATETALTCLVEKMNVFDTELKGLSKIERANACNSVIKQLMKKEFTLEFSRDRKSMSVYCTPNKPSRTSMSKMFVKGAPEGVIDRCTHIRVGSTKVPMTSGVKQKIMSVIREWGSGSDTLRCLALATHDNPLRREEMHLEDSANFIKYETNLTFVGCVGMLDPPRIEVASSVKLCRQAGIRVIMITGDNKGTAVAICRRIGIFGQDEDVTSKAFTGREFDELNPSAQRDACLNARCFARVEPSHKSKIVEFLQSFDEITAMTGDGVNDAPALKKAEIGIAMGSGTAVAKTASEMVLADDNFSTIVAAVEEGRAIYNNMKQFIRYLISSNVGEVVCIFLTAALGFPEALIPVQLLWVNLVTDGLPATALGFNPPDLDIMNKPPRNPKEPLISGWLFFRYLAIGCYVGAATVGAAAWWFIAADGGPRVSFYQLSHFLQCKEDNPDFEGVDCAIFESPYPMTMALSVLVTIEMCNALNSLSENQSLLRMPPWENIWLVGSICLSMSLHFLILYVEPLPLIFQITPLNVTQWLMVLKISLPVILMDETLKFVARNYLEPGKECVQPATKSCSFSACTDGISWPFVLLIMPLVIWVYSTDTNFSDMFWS
Description: as §1, §2, §3, §4

[7] = target: T7, ACAT1 Acetyl-CoA acetyltransferase, mitochondrial C119 (P24752) (Homo sapiens, UniProt P24752)
T7 construct: endogenous in cells; host or cells: primary human T cells
T7 sequence (P24752 34-427): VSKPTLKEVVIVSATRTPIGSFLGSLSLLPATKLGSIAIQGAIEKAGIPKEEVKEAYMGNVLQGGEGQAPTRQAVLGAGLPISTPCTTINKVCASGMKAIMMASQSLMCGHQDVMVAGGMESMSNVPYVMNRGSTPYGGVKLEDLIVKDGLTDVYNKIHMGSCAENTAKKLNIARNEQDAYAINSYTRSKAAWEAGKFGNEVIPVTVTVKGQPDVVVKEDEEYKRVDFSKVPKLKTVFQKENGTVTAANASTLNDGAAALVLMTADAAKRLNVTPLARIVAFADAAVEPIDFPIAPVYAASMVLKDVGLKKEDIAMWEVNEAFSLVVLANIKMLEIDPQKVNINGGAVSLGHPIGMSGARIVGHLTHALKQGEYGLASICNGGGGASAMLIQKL
Description: as §1, §2, §3, §4

[8] = target: T8, MAPK9 Mitogen-activated protein kinase 9 C177 (P45984) (Homo sapiens, UniProt P45984); conditions: 100
T8 construct: endogenous in cells; host or cells: primary human T cells
T8 sequence (P45984 whole entry): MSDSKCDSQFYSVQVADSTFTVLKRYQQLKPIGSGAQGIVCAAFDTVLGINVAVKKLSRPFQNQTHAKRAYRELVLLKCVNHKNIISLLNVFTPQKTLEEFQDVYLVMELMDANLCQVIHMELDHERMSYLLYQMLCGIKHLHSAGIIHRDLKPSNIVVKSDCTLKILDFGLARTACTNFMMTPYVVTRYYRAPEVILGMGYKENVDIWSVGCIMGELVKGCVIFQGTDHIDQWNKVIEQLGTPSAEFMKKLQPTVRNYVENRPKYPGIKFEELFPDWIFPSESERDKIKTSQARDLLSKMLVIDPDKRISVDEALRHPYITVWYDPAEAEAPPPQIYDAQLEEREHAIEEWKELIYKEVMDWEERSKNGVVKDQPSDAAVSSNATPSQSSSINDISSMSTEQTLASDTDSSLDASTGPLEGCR
Description: as §1, §2, §3, §4

T1 sequence (P40763 whole entry, one chain of several): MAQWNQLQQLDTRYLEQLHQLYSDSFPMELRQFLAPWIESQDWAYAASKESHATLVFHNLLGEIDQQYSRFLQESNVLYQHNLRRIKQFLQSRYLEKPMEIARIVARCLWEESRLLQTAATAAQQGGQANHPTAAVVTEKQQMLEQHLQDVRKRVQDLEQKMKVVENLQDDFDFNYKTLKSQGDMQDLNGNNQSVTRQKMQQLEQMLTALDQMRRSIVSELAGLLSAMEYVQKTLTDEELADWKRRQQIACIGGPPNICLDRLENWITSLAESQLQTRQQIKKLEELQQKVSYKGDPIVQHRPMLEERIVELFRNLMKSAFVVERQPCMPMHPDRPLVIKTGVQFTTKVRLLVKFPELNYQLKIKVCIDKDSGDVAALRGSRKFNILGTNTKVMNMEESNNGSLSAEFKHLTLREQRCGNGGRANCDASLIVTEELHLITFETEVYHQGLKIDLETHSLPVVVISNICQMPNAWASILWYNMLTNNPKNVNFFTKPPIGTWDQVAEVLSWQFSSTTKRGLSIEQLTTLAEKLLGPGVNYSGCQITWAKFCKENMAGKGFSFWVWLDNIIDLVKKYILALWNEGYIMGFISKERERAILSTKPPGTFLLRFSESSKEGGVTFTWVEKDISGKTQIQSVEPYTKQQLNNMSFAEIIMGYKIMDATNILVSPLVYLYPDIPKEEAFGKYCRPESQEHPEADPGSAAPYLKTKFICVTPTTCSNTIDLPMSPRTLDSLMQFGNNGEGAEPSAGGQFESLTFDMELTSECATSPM

| Cysteine reactivity proteomic data ([1]; 100 μM) | Cysteine reactivity proteomic data ([1]; 500 μM) | Cysteine reactivity proteomic data [2]; 100 | Cysteine reactivity proteomic data ([3]; 100 μM) | Cysteine reactivity proteomic data ([3]; 500 μM) | Cysteine reactivity proteomic data ([4]; 100 μM) | Cysteine reactivity proteomic data ([4]; 500 μM) | Cysteine reactivity proteomic data [5] | Cysteine reactivity proteomic data [6]; 100 | Cysteine reactivity proteomic data ([7]; 100 μM) | Cysteine reactivity proteomic data ([7]; 500 μM) | Cysteine reactivity proteomic data [8] | Cysteine reactivity proteomic data ([2]; 500 μM) | Cysteine reactivity proteomic data ([6]; 500 μM) | SMILES |
| --- | --- | --- | --- | --- | --- | --- | --- | --- | --- | --- | --- | --- | --- | --- |
| 64.9054 | 69.5373 | 82.88 | 78.9759 | 98.8468 | 25.6002 | 76.6489 | 62.11 | 22.19 | −38.85 | 24.795 | 72.19 |  |  | O=C(CCl)N1CCN(S(=O)(=O)c2ccc(-c3ccncc3)cc2)CC1 [Compound B9] |
|  | 12.6621 |  |  | 22.4158 |  | 2.418 |  |  |  | −0.3282 |  | 6.5 | 61.48 | C=CC(=O)N(Cc1cccc(Cl)c1Cl)c1ccc(Oc2ccccc2)c(C(F)(F)F)c1 [Compound K4] |

From US20240123078A1, “COMPOUNDS AND METHODS FOR MODULATING IMMUNE-RELATED PROTEINS” (Vividion Therapeutics, Inc., priority 2019, published 2024)
